Test results published in patent US20230286973A1, “PROTEIN SECRETION INHIBITORS” (KEZAR LIFE SCIENCES, priority 2020, published 2023).
Read-outs that look alike come from different tables or passages of the source.

Columns and labels:
[1] = Liver Microsome Stability Assay (human); settings: human liver microsomes, with NADPH, 1.0 uM compound
Protocol: (§3) Stability of a compound was assessed in the presence of liver microsomes from various sources—mouse, rat, monkey and human liver microsomes. 1.0 uM compound, 0.4% DMSO in 0.1 M Potassium Phosphate with 1.0 mg/mL liver microsomes, were incubated at 37° C. with or without 1 mM NADPH. The samples were quenched at 0, and 30 minutes.

[2] = Liver Microsome Stability Assay (monkey); settings: monkey liver microsomes, with NADPH, 1.0 uM compound
Protocol: as §3

[3] = Liver Microsome Stability Assay (mouse); settings: mouse liver microsomes, with NADPH, 1.0 uM compound
Protocol: as §3

[4] = Liver Microsome Stability Assay (rat); settings: rat liver microsomes, with NADPH, 1.0 uM compound
Protocol: as §3

[5] = tested on: IL-2-FL/Gaussia Luciferase; assay: Dox Induced IL2-FL-Gluc Assay; assay type: cell-based; settings: for IC50: 24 hr Dox induction, 293FRT/TO cells, read-out: 24 hr Dox Inducible IL2FLGluc 293FRT/TO: Mean IC50; for 24 hr Dox Inducible IL2FLGluc 293FRT/TO: IL2/PD1: ratio of IL2FLGluc IC50 to PD1ssGluc IC50
Excerpt: (§1) Flp-In 293 T-REx™ cells were transfected with pcDNA™5/FRT/TO plasmid inserted with cDNA encoding Gaussia Luciferase fused to the 3′ end of cDNA encoding full length IL-2 (amino acids 1-153). Transfected cells were selected for resistance to the selectable markers Hygromycin and Blasticidin to create a stable cell line that contained the IL-2-FL/Gaussia Luciferase cDNA insert whose expression was regulated under the T-REx™ system. The day before assay, cells were trypsinized and plated in 384-well tissue culture plates. The next day, compound dilutions in DMSO/media containing doxycycline were added to the wells and incubated at 37° C., 5% CO2.
(§2) For chemical structures that include one or more stereoisomers, but are illustrated without indicating stereochemistry, the assay data refers to a mixture of stereoisomers.

[6] = tested on: PD1-ss+10aa/Gaussia Luciferase; assay: Dox-Induced PD1-ss-Gluc Assay; assay type: cell-based; settings: 24 hr Dox induction, 293FRT/TO cells, read-out: 24 hr Dox Inducible PD1ssGluc 293FRT/TO: Mean IC50
Excerpt: as §1, with “PD1 signal sequence plus 10 amino” for “full length IL-2 (amino”, “(N-[…]-C) (SEQ ID NO: 1).” for “1-153).”, “PD1-ss+10aa/Gaussia” for “IL-2-FL/Gaussia”
as §2

[7] = '<=>' given where both are I.A.

| SMILES | Liver Microsome Stability (Multiple Species): Human - % Remaining after 30 min w/NADPH [1] [%] | Liver Microsome Stability (Multiple Species): Monkey - % Remaining after 30 min w/NADPH [2] [%] | Liver Microsome Stability (Multiple Species): Mouse - % Remaining after 30 min w/NADPH [3] [%] | Liver Microsome Stability (Multiple Species): Rat - % Remaining after 30 min w/NADPH [4] [%] | IC50 ([5]; mean) [nM] | IC50 ([6]; mean) [nM] | IC50 [5] [nM] | IC50 [6] [nM] | 24 hr Dox Inducible IL2FLGluc 293FRT/TO: IL2/PD1 [5, 7] | 24 hr Dox Inducible IL2FLGluc 293FRT/TO: IL2/PD1 [5] |
| --- | --- | --- | --- | --- | --- | --- | --- | --- | --- | --- |
| CN1C(=O)OCC1/C=C/c1csc(NC(=O)c2cccn2Cc2ccncc2)n1 (stereo not shown) [Compound B15, (E)-N-(4-(2-(3-methyl-2-oxooxazolidin-4-yl)vinyl)thiazol-2-yl)-1-(pyridin-4-ylmethyl)-1H-pyrrole-2-carboxamide] | 0.11 | 0.4 | 0.34 | 0.28 |  |  |  |  |  |  |
| O=C(Nc1nc([C@H]2CCCN2c2ccc(C3CC3)cc2)cs1)c1cccn1Cc1ccncc1 [Compound A24, (R)-N-(4-(1-(4-cyclopropylphenyl)pyrrolidin-2-yl)thiazol-2-yl)-1-(pyridin-4-ylmethyl)-1H-pyrrole-2-carboxamide] | 22.4 | 22.5 | 19.9 | 35.9 |  |  |  |  |  |  |
| CCc1ccc(N2CCC[C@@H]2c2csc(NC(=O)c3cccn3Cc3ccncc3)n2)cc1 [Compound A22, (R)-N-(4-(1-(4-ethylphenyl)pyrrolidin-2-yl)thiazol-2-yl)-1-(pyridin-4-ylmethyl)-1H-pyrrole-2-carboxamide] | 29.1 | 17.6 | 15.8 | 11.7 |  |  |  |  |  |  |
| CC(C)c1ccc(N2CCC[C@@H]2c2csc(NC(=O)c3cccn3Cc3ccncc3)n2)cc1 [Compound A23, (R)-N-(4-(1-(4-isopropylphenyl)pyrrolidin-2-yl)thiazol-2-yl)-1-(pyridin-4-ylmethyl)-1H-pyrrole-2-carboxamide] | 24.7 | 29.9 | 25.3 | 40.2 |  |  |  |  |  |  |
| O=C(Nc1nc([C@H]2CCCN2c2ncccn2)cs1)c1cccn1Cc1ccncc1 [Compound A32, (R)-1-(pyridin-4-ylmethyl)-N-(4-(1-(pyrimidin-2-yl)pyrrolidin-2-yl)thiazol-2-yl)-1H-pyrrole-2-carboxamide] | 0.24 | 0.05 | 0.17 | 0.55 |  |  |  |  |  |  |
| CN1C(=O)CCCC1/C=C/c1csc(NC(=O)c2cccn2Cc2ccncc2)n1 (stereo not shown) [Compound B19, (E)-N-(4-(2-(1-methyl-6-oxopiperidin-2-yl)vinyl)thiazol-2-yl)-1-(pyridin-4-ylmethyl)-1H-pyrrole-2-carboxamide] | 0.05 | 0.03 | 0.83 | 1.18 |  |  |  |  |  |  |
| Cn1ccnc1/C=C/c1csc(NC(=O)c2cccn2Cc2ccncc2)n1 [Compound B20, (E)-N-(4-(2-(1-methyl-1H-imidazol-2-yl)vinyl)thiazol-2-yl)-1-(pyridin-4-ylmethyl)-1H-pyrrole-2-carboxamide] |  |  |  |  |  |  | > 25000 | 5420 |  | >4.6 |
| O=C(Nc1nc([C@H]2CCCN2c2cnccn2)cs1)c1cccn1Cc1ccncc1 [Compound A30, (R)-N-(4-(1-(pyrazin-2-yl)pyrrolidin-2-yl)thiazol-2-yl)-1-(pyridin-4-ylmethyl)-1H-pyrrole-2-carboxamide] | 0.27 | 0.03 | 0.86 | 0.21 |  |  |  |  |  |  |
| CC1=NC(/C=C/c2csc(NC(=O)c3cccn3Cc3ccncc3)n2)CO1 (stereo not shown) [Compound B14] | 3.9 | 6.02 | 2.9 | 3.31 |  |  |  |  |  |  |

Continued, in another order:

| Liver Microsome Stability (Multiple Species): Human - % Remaining after 30 min w/NADPH [1] [%] | Liver Microsome Stability (Multiple Species): Monkey - % Remaining after 30 min w/NADPH [2] [%] | Liver Microsome Stability (Multiple Species): Mouse - % Remaining after 30 min w/NADPH [3] [%] | Liver Microsome Stability (Multiple Species): Rat - % Remaining after 30 min w/NADPH [4] [%] | IC50 ([5]; mean) [nM] | IC50 ([6]; mean) [nM] | IC50 [5] [nM] | IC50 [6] [nM] | SMILES | 24 hr Dox Inducible IL2FLGluc 293FRT/TO: IL2/PD1 [5, 7] | 24 hr Dox Inducible IL2FLGluc 293FRT/TO: IL2/PD1 [5] |
| --- | --- | --- | --- | --- | --- | --- | --- | --- | --- | --- |
| 0.09 | 0.09 | 1.59 | 1.92 |  |  |  |  | O=C(Nc1nc([C@H]2CCCN2C2COC2)cs1)c1cccn1Cc1ccncc1 [Compound E49, (R)-N-(4-(1-(oxetan-3-yl)pyrrolidin-2-yl)thiazol-2-yl)-1-(pyridin-4-ylmethyl)-1H-pyrrole-2-carboxamide] |  |  |
| 15.3 | 15 | 4.75 | 10.6 |  |  |  |  | CC(CC#N)Cn1cccc1C(=O)Nc1nc([C@H]2CCCN2c2ccccc2)cs1 (stereo partly drawn) [Compound C20, 1-(3-cyano-2-methylpropyl)-N-(4-((R)-1-phenylpyrrolidin-2-yl)thiazol-2-yl)-1H-pyrrole-2-carboxamide] |  |  |
| 3.59 | 8.4 | 3.48 | 3.9 |  |  |  |  | N#CCC1(Cn2cccc2C(=O)Nc2nc([C@H]3CCCN3c3ccccc3)cs2)COC1 [Compound C19, (R)-1-((3-(cyanomethyl)oxetan-3-yl)methyl)-N-(4-(1-phenylpyrrolidin-2-yl)thiazol-2-yl)-1H-pyrrole-2-carboxamide] |  |  |
|  |  |  |  | 56.8 | 17.5 |  |  | O=C(Nc1nc([C@H]2CCCN2c2ccccc2)cs1)c1cccn1Cc1ccncc1F [Compound E27, (R)-1-((3-fluoropyridin-4-yl)methyl)-N-(4-(1-phenylpyrrolidin-2-yl)thiazol-2-yl)-1H-pyrrole-2-carboxamide] | 3.2 |  |
|  |  |  |  | > 25000 | 7970 |  |  | O=C(Nc1nc([C@H]2CCCN2c2ccccc2)cs1)c1cccn1CCCCc1cnn[nH]1 [Compound C26, (R)-1-(4-(1H-1,2,3-triazol-5-yl)butyl)-N-(4-(1-phenylpyrrolidin-2-yl)thiazol-2-yl)-1H-pyrrole-2-carboxamide] | >3.1 |  |
| 0.37 | 0.17 | 1.05 | 6.61 |  |  |  |  | O=C(NC/C=C/c1csc(NC(=O)c2cccn2Cc2ccncc2)n1)c1ccccc1 [Compound E54, (E)-N-(4-(3-benzamidoprop-1-en-1-yl)thiazol-2-yl)-1-(pyridin-4-ylmethyl)-1H-pyrrole-2-carboxamide] |  |  |
| 0.07 | 0.08 | 0.15 | 0.2 |  |  |  |  | N#CC[C@@H]1CC[C@H]1Cn1cccc1C(=O)Nc1nc([C@H]2CCCN2c2ccccc2)cs1 [Compound C18, 1-(((1R,2S)-2-(cyanomethyl)cyclobutyl)methyl)-N-(4-((R)-1-phenylpyrrolidin-2-yl)thiazol-2-yl)-1H-pyrrole-2-carboxamide] |  |  |
|  |  |  |  | 2980 | 315 |  |  | CC(C)c1cccc(/C=C/c2csc(NC(=O)c3cccn3Cc3ccncc3)n2)n1 [Compound E55, (E)-N-(4-(2-(6-isopropylpyridin-2-yl)vinyl)thiazol-2-yl)-1-(pyridin-4-ylmethyl)-1H-pyrrole-2-carboxamide] | 9.5 |  |
